From patent US8512695B2 (priority 2008, dated 2013) come the findings set out here.

Where two headings read alike, the source gives them in different places.

Data set [1] deals with adipocytes of fat grafts. Kind of data set: Apoptosis quantification in explanted fat grafts (Mito-PT / Apo-One fluorescent labels, plate reader). It is filed as in vivo. The conditions noted are these: for apoptosis level (words): early engraftment period, first ten days. As to the method:
Apoptosis Identification. Immunochemistry apoptosis specific fluorescent labels FLIVO™ and MT Mito™ were used to identify apoptosis in adipocytes. Fat grafts were explanted, treated with Blendzyme (Roche Applied Science Liberase Blendzyme 3) at 38° C. for 20 minutes, and passed through a 100 micron cell strainer (to remove extra-cellular stromal elements left behind after digestion). These cells were then incubated for one hour at 38° C., and washed once following labeling. Afterwards these cells were placed into 96 well black plates, and read on a plate reader (Molecular Devices, SpectraMax M2) at their dye-specific emission and excitation wavelengths (FLIVO-red ex 565/em>590, MITO-PT ex 488/em green 530, red 590).
Fat Processing. Lipoaspirate was taken directly from the operating room. It was separated into 30 cc aliquots, and washed once with an equal volume of normal saline to remove blood and cellular debris. Afterwards, the tubes were centrifuged at 200G and the middle layer was separated and treated with various agents. These agents were treated in 30 cc washes, with 30 cc of fat for 30 minutes at 37° C. This incubation was chosen to minimize ischemic time while allowing for sufficient mixing with treatment agents. Following incubation and washing, the fat was again centrifuged at 200G. The middle fat layer was again separated and placed in 1.0 cc, 1.0 g aliquots for injection into the flanks of nude mice. This was performed under IRB approval for use of de-identified discarded tissue. Of note, the harvesting cannulas and harvesting pressures varied case by case and surgeon by surgeon. Fat was engrafted into animals within two hours of collection from the operating room in order to minimize warm ischemia time.
Experimental Model. Nude mice were implanted with 1.0 cc/1.0 g (+/−0.01 gm) fat grafts in a single lobule. These mice were injected with a 14 gauge angio-catheter to simulate a clinically relevant 1 cc injection. Two lobules were implanted into bilateral flanks of each nude mouse used in the study. The 14 gauge angio-catheter was chosen to minimize fat graft trauma during injection. Many clinicians use 16 and 14 gauge catheters currently for fat grafting, thus this size catheter was used to approximate clinical practice.
Initially, the lobules were explanted daily and measured for weight and apoptotic activity. After early curves were generated, lobules were explanted on days 3, 6, and 9, for the primary measurement of apoptosis levels. Additionally these samples were weighed, sent for histology, and measured for DNA content. Endpoints in the first ten days were compared to endpoints at six weeks to determine whether graft performance can be accurately predicted by early apoptosis and cell death.
Each experiment consisted of an early group and a late group of mice. Each group was injected with the same fat from a single patient on a single day. For the early time points two animals were euthanized on each sampling day for each group (n=4 lobules per each early time point). Additionally, animals from these same groups were then euthanized at six weeks for examination of late endpoints (8 animals generating 16 lobules were used for each group of late time points). Once an animal was euthanized, both lobules were collected analyzed, and the animal was removed from the study.
Apoptosis Quantification. Initially, lobules were explanted daily and measured for levels of apoptosis using Mito-PT. After daily testing, it was noted that peak levels of apoptosis occurred between days 5-7, and then trended back down. These values fell approximately in a bell shaped curve. Once this curve was determined, subsequent samples were tested on days 0, 3, 6, and 9, for a sampling of early apoptosis (see FIG. 7).

The subject of data set [2] is fat grafts. The data set is described as follows: Weight / reabsorption by weight of 1.0 cc/1.0 g fat grafts. It is filed as in vivo, nude mice.
Protocol: (§1) Fat Processing. Lipoaspirate was taken directly from the operating room. It was separated into 30 cc aliquots, and washed once with an equal volume of normal saline to remove blood and cellular debris. Afterwards, the tubes were centrifuged at 200G and the middle layer was separated and treated with various agents. These agents were treated in 30 cc washes, with 30 cc of fat for 30 minutes at 37° C. This incubation was chosen to minimize ischemic time while allowing for sufficient mixing with treatment agents. Following incubation and washing, the fat was again centrifuged at 200G. The middle fat layer was again separated and placed in 1.0 cc, 1.0 g aliquots for injection into the flanks of nude mice. […] Fat was engrafted into animals within two hours of collection from the operating room in order to minimize warm ischemia time.
Each experiment consisted of an early group and a late group of mice. […] For the early time points two animals were euthanized on each sampling day for each group (n=4 lobules per each early time point). Additionally, animals from these same groups were then euthanized at six weeks for examination of late endpoints (8 animals generating 16 lobules were used for each group of late time points). Once an animal was euthanized, both lobules were collected analyzed, and the animal was removed from the study.
Data set [3] has as its system fat grafts. It is filed as in vivo.
Protocol: as §1
Experimental Model. Nude mice were implanted with 1.0 cc/1.0 g (+/−0.01 gm) fat grafts in a single lobule. […]
Initially, the lobules were explanted daily and measured for weight and apoptotic activity. […] Additionally these samples were weighed, sent for histology, and measured for DNA content. […]
Each experiment consisted of an early group and a late group of mice. […] Once an animal was euthanized, both lobules were collected analyzed, and the animal was removed from the study.
Where [4] appears, read: Day 3, comparison experiments of FIG. 8.
The mark [5] stands for this setting: agents tested for potential additive effects with P188, saline in this group 0.74 g.
The mark [6] stands for this setting: Day 6, comparison experiments of FIG. 8.

Phosphatidylcholine [PC]: the apoptosis level in data set [1] (setting [4]) is on record as 52,000 RFUs. Besides, the “apoptosis level (words)” value in data set [1] (listed as Phosphatidylcholine) is reported as “elevated levels of apoptosis compared to P188”; in data set [1] (listed as phosphatidylcholine) it was “some protective effect, but not to the same magnitude as P188”.

As to `O=C(O)CCCC[C@@H]1CCSS1` (racemic) [lipoic acid], in data set [2] (1.0 cc/1.0 g graft implanted, six weeks), the “weight at six weeks” value came out at 0.65 ± 0.09 g. The “reabsorption by weight” value in data set [2] (six weeks) is on record as “statistically significant differences in reabsorption”. Moreover, in data set [1], the “apoptosis level (words)” value is “decreased apoptosis during the engraftment period when compared to saline treated controls”.

With `O=C1O[C@H]([C@@H](O)CO)C(O)=C1O` [vitamin C, ascorbic acid], the “apoptosis level (words)” value in data set [1] is “high levels of apoptosis”.

With `CC(C)CCC[C@@H](C)[C@H]1CC[C@H]2[C@@H]3CC=C4C[C@@H](O)CC[C@]4(C)[C@H]3CC[C@]12C` [cholesterol], in data set [2] (setting [5]), the “weight at six weeks” value amounted to 0.73 ± 0.04 g. In addition, in data set [3] (conclusion over early and late endpoints), the “overall effect on / toxicity to fat grafts” value was “toxic”.

Take `CCCCCCCCCCCCCCCC[N+](C)(C)C.[Cl-]` [CTA, cetyltrimethylammonium chloride]: the apoptosis level in data set [1] (setting [4]) and in data set [1] (setting [6]) was 35,338 RFUs throughout. The “apoptosis level (words)” value in data set [1] was “higher levels of apoptosis than normal saline controls at earlier time points”.

In the case of `CCCCCCCCCCCCCCCC[N+](C)(C)C.[Br-]` [HCTA, Hexadecyltrimethylammonium bromide], the results for the apoptosis level in data set [1] (setting [4]) and in data set [1] (setting [6]) were 31,076 RFUs and 41,037 RFUs, respectively. Also, in data set [1], the “apoptosis level (words)” value is given as “higher levels of apoptosis than normal saline controls at earlier time points”.

Turning to `Oc1ccc(C=Cc2cc(O)cc(O)c2)cc1` [resveratrol], the “weight at six weeks” value in data set [2] (setting [5]) worked out at 0.73 ± 0.03 g. Moreover, the “overall effect on / toxicity to fat grafts” value in data set [3] (mouse, in vivo) was “toxic”.
